pIC50: −log10 of the molar value.

A word on the pIC50: it is −log10 of the IC50, conventionally taken in molar units. A higher pIC50 goes with a low IC50.

One test relates to live female rabbits. The settings on record: cited from earlier work.
A further test deals with live male rabbits. As to conditions: cited from earlier work.
The next test relates to guinea pigs. The settings on record: nebulizer treatment, allergic asthma model; cited from earlier work.
The test system of test [1] is corpus cavernosum of the diabetic man. As to conditions: ex vivo; cited from earlier work.
The test system of test [2] is animal model of multiple sclerosis (experimental autoimmune encephalomyelitis). The settings on record: cited from earlier work.
Test [3] has as its system rabbit and human penile corpus cavernosum. As to conditions: rabbit and human tissue; cited from earlier work.
The subject of test [4] is opossum internal anal sphincter muscle. As to conditions: cited from earlier work.
A further test deals with T1, Arginase (ARG1 enzyme) (Homo sapiens, UniProt P05089).
T1 construct: made in house; host or cells: Escherichia coli
T1 sequence (P05089 1-322): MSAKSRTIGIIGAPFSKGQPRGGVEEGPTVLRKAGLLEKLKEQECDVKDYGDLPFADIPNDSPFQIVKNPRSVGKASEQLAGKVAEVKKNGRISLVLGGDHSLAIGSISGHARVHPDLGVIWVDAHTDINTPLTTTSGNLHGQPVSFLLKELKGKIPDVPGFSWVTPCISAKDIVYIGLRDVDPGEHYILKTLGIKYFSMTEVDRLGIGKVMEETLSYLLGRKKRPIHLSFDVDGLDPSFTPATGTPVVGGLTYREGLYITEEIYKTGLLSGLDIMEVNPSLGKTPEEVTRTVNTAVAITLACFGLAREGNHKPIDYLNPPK
Kind of test: Arginase Thioornithine Generating Assay (TOGA). In kind it is biochemical. As to conditions: 1.88 nM arginase, thioarginine substrate, fluorescence readout.

`N[C@@H](CCCCB(O)O)C(=O)O` [ABH, (S)-2-amino-6-boronohexanoic acid]: the “engorgement response in the genitalia” value in the test on live female rabbits was “enhances the engorgement response”. The erectile response result in the test on live male rabbits is “enhances the erectile response”. The airway hyperresponsiveness result in the test with guinea pigs is “prevents airway hyperresponsiveness”. In addition, the nitric oxide biosynthesis result in test [1] is listed as “restores nitric oxide biosynthesis”. Further, the disease score entry in test [2] was “improves the disease score”. For the same molecule, the “nitric oxide-dependent relaxation of penile corpus cavernosum” value in test [3] is listed as “enhances the nitric oxide-dependent relaxation of this tissue”. Further, in test [4], the “relaxation of internal anal sphincter muscle” value is recorded as “relax this muscle”.
Consider `CC(C)[C@H](N)C(=O)N[C@H]1CN[C@H](C(=O)O)[C@]1(C)CCCB(O)O` [Example 70, (2S,3R,4R)-4-((S)-2-amino-3-methylbutanamido)-3-(3-boronopropyl)-3-methylpyrrolidine-2-carboxylic acid], for which, on Arginase (ARG1 enzyme), the pIC50 is 7.08.

These data come from patent US12215116B2, “Arginase inhibitors and methods of use” (Merck Sharp & Dohme LLC, priority 2018, dated 2025).
